Structures can show the parent of a compound that is named as a salt.
Test system: E. coli 0157
Experiment: Hydrolysis on Columbia agar with ferric ammonium citrate
Type: cell-based
Parameters: key to the marks not given beside the values
Method: The chromogenic β-D-ribofuranoside substrate was added to Columbia agar at a substrate concentration of 300 mg/l. Ferric ammonium citrate was included at 500 mg/l. All ingredients were autoclaved at 116° C. for 20 minutes to ensure sterilisation. Agar plates were then prepared in 90 mm petri dishes. The substrate caused a yellow colouration of the agar.
For each strain tested, a bacterial suspension was prepared in sterile deionised water at an inoculum of approximately 1.5×10^8 colony forming units per ml. This was achieved using a densitometer. 1 μl of each bacterial suspension was then inoculated onto each plate using a multipoint inoculator. Strains were inoculated in parallel onto Columbia agar containing ferric ammonium citrate with no substrate (negative control).
After 18 hours incubation, strains were examined visually for the presence of colour. Any strains producing a black colouration on substrate containing media but not on the negative control plates were deemed to be hydrolysing the substrate.

Measured: β-Riboside (hydrolysis)

O=c1cc(-c2ccc(OC3OC(CO)C(O)C3O)c(O)c2)oc2ccccc12 [DHF-riboside, 3′,4′-Dihydroxyflavone-4′-β-D-ribofuranoside sodium salt]
++: E. coli 0157 NCTC 12079 | E. coli 0157 NCTC 12080 | E. coli 0157 NCTC 12900 | E. coli 0157 NCTC 13125 | E. coli 0157 NCTC 13126 | E. coli 0157 NCTC 13127 | E. coli 0157 NCTC 13128
